Assay results reported in paper PMC9090415, “Discovery of small molecule inhibitors of Plasmodium falciparum apicoplast DNA polymerase” (Journal of Enzyme Inhibition and Medicinal Chemistry, 2022).

Target: P. falciparum apicoplast DNA polymerase (Pf-apPOL) (Plasmodium falciparum, UniProt Q8ILY1)
Assay: Fluorescence-based high-throughput DNA polymerase assay (molecular beacon), primary screen and dose-response
Type: biochemical
Details: for DNA Pol: 90 min, 10 µM; for % inhibition apPOL 180' 2.5 / % inhibition apPOL 180' 5 / % inhibition apPOL 180' 10 / % inhibition apPOL 180' 20 / % inhibition apPOL 180' 40 / % inhibition apPOL 180' 80: read at 180'
Method in brief: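 Single-point screening used 10 µM compound with 20 nM polymerase, 20 nM hairpin substrate and 6 µM dNTPs for 90 min at 25 °C. Confirmatory titrations (2.5–80 µM) followed fluorescence at three times, and IC50 was derived from a fit including a cooperativity term n.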

Sequence of P. falciparum apicoplast DNA polymerase (Pf-apPOL) (Q8ILY1 entry or part of it): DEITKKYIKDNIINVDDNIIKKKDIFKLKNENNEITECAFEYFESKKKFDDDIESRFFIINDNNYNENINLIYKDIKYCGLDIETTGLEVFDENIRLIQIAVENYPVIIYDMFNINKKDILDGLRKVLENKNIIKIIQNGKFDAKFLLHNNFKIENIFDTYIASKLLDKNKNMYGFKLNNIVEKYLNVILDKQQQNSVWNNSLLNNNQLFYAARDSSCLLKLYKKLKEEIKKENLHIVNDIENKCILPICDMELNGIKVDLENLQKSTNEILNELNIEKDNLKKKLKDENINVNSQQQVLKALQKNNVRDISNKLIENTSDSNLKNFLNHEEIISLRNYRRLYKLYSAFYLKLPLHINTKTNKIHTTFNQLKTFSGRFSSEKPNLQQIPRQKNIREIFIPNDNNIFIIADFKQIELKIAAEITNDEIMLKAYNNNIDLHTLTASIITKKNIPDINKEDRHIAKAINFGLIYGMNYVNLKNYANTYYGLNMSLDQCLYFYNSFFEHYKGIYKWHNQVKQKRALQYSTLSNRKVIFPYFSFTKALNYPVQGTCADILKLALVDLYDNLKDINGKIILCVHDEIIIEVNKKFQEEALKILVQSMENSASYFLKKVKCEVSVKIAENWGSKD

`O=C(CSc1nnc(-c2ccco2)[nH]1)c1ccc(Cl)cc1` [KU0029065] was tested, and the “DNA Pol” value ("DNA Pol" of the 186 hits list (screen value)) was 40, the “% inhibition Apo pol 10'” value (DRC-1, concentration 2.5) was 25.2453% and the “% inhibition Apo pol 10'” value (DRC-1, concentration 5) was 33.7865%. For the same compound, the “% inhibition Apo pol 10'” value (DRC-1, concentration 10) was 71.7651%, the “% inhibition Apo pol 10'” value (DRC-1, concentration 20) was 81.7468% and the “% inhibition Apo pol 10'” value (DRC-1, concentration 40) was 82.8592%. For the same compound, the “% inhibition Apo pol 10'” value (DRC-1, concentration 80) was 73.082%, the “% inhibition Apol 90'” value (DRC-1, concentration 2.5) was 14.2802% and the “% inhibition Apol 90'” value (DRC-1, concentration 5) was 16.5602%. The “% inhibition Apol 90'” value (DRC-1, concentration 10) was 48.3315%, the “% inhibition Apol 90'” value (DRC-1, concentration 20) was 65.2838% and the “% inhibition Apol 90'” value (DRC-1, concentration 40) was 75.799%. For the same compound, the “% inhibition Apol 90'” value (DRC-1, concentration 80) was 79.1006%, the “% inhibition apPOL 180'” value (DRC-1, concentration 2.5) was 10.7111% and the “% inhibition apPOL 180'” value (DRC-1, concentration 5) was 8.15%. The “% inhibition apPOL 180'” value (DRC-1, concentration 10) was 30.1123%, the “% inhibition apPOL 180'” value (DRC-1, concentration 20) was 47.4786% and the “% inhibition apPOL 180'” value (DRC-1, concentration 40) was 65.3498%. The “% inhibition apPOL 180'” value (DRC-1, concentration 80) was 74.7958%, the “% inhibition Apo pol 5'” value (DRC-2, concentration 2.5) was -0.174% and the “% inhibition Apo pol 5'” value (DRC-2, concentration 5) was -0.717%. For the same compound, the “% inhibition Apo pol 5'” value (DRC-2, concentration 10) was 6%, the “% inhibition Apo pol 5'” value (DRC-2, concentration 20) was 26% and the “% inhibition Apo pol 5'” value (DRC-2, concentration 40) was -5.63%. For the same compound, the “% inhibition Apo pol 5'” value (DRC-2, concentration 80) was -27%, the “% inhibition Apol 40'” value (DRC-2, concentration 2.5) was 0.888% and the “% inhibition Apol 40'” value (DRC-2, concentration 5) was 0.406%. The “% inhibition Apol 40'” value (DRC-2, concentration 10) was 7%, the “% inhibition Apol 40'” value (DRC-2, concentration 20) was 17% and the “% inhibition Apol 40'” value (DRC-2, concentration 40) was 0.537%. The “% inhibition Apol 40'” value (DRC-2, concentration 80) was -50%, the “% inhibition ApPOL 90'” value (DRC-2, concentration 2.5) was 1.21% and the “% inhibition ApPOL 90'” value (DRC-2, concentration 5) was -0.831%. The “% inhibition ApPOL 90'” value (DRC-2, concentration 10) was 6%, the “% inhibition ApPOL 90'” value (DRC-2, concentration 20) was 23% and the “% inhibition ApPOL 90'” value (DRC-2, concentration 40) was -0.138%. For the same compound, the “% inhibition ApPOL 90'” value (DRC-2, concentration 80) was -49%, the “% inhibition apPOL 180'” value (DRC-2, concentration 2.5) was 0.33% and the “% inhibition apPOL 180'” value (DRC-2, concentration 5) was -8%. The “% inhibition apPOL 180'” value (DRC-2, concentration 10) was -2.67%, the “% inhibition apPOL 180'” value (DRC-2, concentration 20) was 15% and the “% inhibition apPOL 180'” value (DRC-2, concentration 40) was -5%. The “% inhibition apPOL 180'” value (DRC-2, concentration 80) was -45% and the “DNA Pol” value (primary screen value, DNA Pol) was 40.

`C#CC(C=CC)OC(=O)c1ccccc1C(=O)O` (stereo not drawn) [Molecule 61, CC=CC(OC(=O)c1ccccc1C(=O)O)C#C] was tested, and the “DNA Pol” value (186 hits, DNA Pol (screen value), unit not given) was 84, the “DNA Pol” value ('DNA Pol' (screen value), unit not given) was 84 and the “% inhibition Apo pol 10' 2.5” value (DRC-1, read at 10', concentration 2.5) was 8.856%. The “% inhibition Apo pol 10' 5” value (DRC-1, read at 10', concentration 5) was 15.4135%, the “% inhibition Apo pol 10' 10” value (DRC-1, read at 10', concentration 10) was 32.6686% and the “% inhibition Apo pol 10' 20” value (DRC-1, read at 10', concentration 20) was 51.5021%. For the same compound, the “% inhibition Apo pol 10' 40” value (DRC-1, read at 10', concentration 40) was 73.1045%, the “% inhibition Apo pol 10' 80” value (DRC-1, read at 10', concentration 80) was 83.6168% and the “% inhibition Apol 90' 2.5” value (DRC-1, read at 90', concentration 2.5) was 1.5571%. For the same compound, the “% inhibition Apol 90' 5” value (DRC-1, read at 90', concentration 5) was 4.145%, the “% inhibition Apol 90' 10” value (DRC-1, read at 90', concentration 10) was 16.9852% and the “% inhibition Apol 90' 20” value (DRC-1, read at 90', concentration 20) was 30.9577%. For the same compound, the “% inhibition Apol 90' 40” value (DRC-1, read at 90', concentration 40) was 54.6934%, the “% inhibition Apol 90' 80” value (DRC-1, read at 90', concentration 80) was 70.5531% and the “% inhibition apPOL 180' 2.5” value (DRC-1, concentration 2.5) was -3.738%. The “% inhibition apPOL 180' 5” value (DRC-1, concentration 5) was -3.151%, the “% inhibition apPOL 180' 10” value (DRC-1, concentration 10) was 5.1086% and the “% inhibition apPOL 180' 20” value (DRC-1, concentration 20) was 14.9685%. The “% inhibition apPOL 180' 40” value (DRC-1, concentration 40) was 36.8949%, the “% inhibition apPOL 180' 80” value (DRC-1, concentration 80) was 55.2706% and the “% inhibition Apo pol 5'” value (DRC-2, concentration 80) was 57%. The “% inhibition Apol 40'” value (DRC-2, concentration 80) was 69%, the “% inhibition ApPOL 90'” value (DRC-2, concentration 20) was 48% and the “% inhibition ApPOL 90'” value (DRC-2, concentration 40) was 57%. The “% inhibition apPOL 180'” value (DRC-2, concentration 2.5) was -4%, the “% inhibition apPOL 180'” value (DRC-2, concentration 5) was -4% and the “% inhibition apPOL 180'” value (DRC-2, concentration 40) was 48%. For the same compound, the “% inhibition apPOL 180'” value (DRC-2, concentration 80) was 69%, the “% inhibition Apo pol 5' 2.5” value (DRC-2, read at 5', concentration 2.5) was 3.3% and the “% inhibition Apo pol 5' 5” value (DRC-2, read at 5', concentration 5) was 15%. The “% inhibition Apo pol 5' 10” value (DRC-2, read at 5', concentration 10) was 33%, the “% inhibition Apo pol 5' 20” value (DRC-2, read at 5', concentration 20) was 50% and the “% inhibition Apo pol 5' 40” value (DRC-2, read at 5', concentration 40) was 54%. For the same compound, the “% inhibition Apo pol 5' 80” value (DRC-2, read at 5', concentration 80) was 57%, the “% inhibition Apol 40' 2.5” value (DRC-2, read at 40', concentration 2.5) was 3% and the “% inhibition Apol 40' 5” value (DRC-2, read at 40', concentration 5) was 11%. For the same compound, the “% inhibition Apol 40' 10” value (DRC-2, read at 40', concentration 10) was 31%, the “% inhibition Apol 40' 20” value (DRC-2, read at 40', concentration 20) was 52% and the “% inhibition Apol 40' 40” value (DRC-2, read at 40', concentration 40) was 59%. For the same compound, the “% inhibition Apol 40' 80” value (DRC-2, read at 40', concentration 80) was 69%, the “% inhibition ApPOL 90' 2.5” value (DRC-2, read at 90', concentration 2.5) was 0.76% and the “% inhibition ApPOL 90' 5” value (DRC-2, read at 90', concentration 5) was 5.31%. The “% inhibition ApPOL 90' 10” value (DRC-2, read at 90', concentration 10) was 26%, the “% inhibition ApPOL 90' 20” value (DRC-2, read at 90', concentration 20) was 48% and the “% inhibition ApPOL 90' 40” value (DRC-2, read at 90', concentration 40) was 57%. For the same compound, the “% inhibition ApPOL 90' 80” value (DRC-2, read at 90', concentration 80) was 71%, the “% inhibition apPOL 180' 2.5” value (DRC-2, concentration 2.5) was -4% and the “% inhibition apPOL 180' 5” value (DRC-2, concentration 5) was -4%. For the same compound, the “% inhibition apPOL 180' 10” value (DRC-2, concentration 10) was 13%, the “% inhibition apPOL 180' 20” value (DRC-2, concentration 20) was 35% and the “% inhibition apPOL 180' 40” value (DRC-2, concentration 40) was 48%. For the same compound, the “% inhibition apPOL 180' 80” value (DRC-2, concentration 80) was 69%.
